Laboratory results reported in PubChem BioAssay (NCI).
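Assay format: 96-well plates, 48-hour exposure. GI50 is the concentration that inhibits growth by half. TGI: total growth inhibition.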

Key:
Experiment in all cases: growth of human tumour cells (NCI), 48 h
SR leukemia = tested on: SR leukemia
UACC-257 melanoma = tested on: UACC-257 melanoma
SN12C renal = tested on: SN12C renal
OVCAR-3 ovarian = tested on: OVCAR-3 ovarian
UACC-62 melanoma = tested on: UACC-62 melanoma
COLO 205 colon = tested on: COLO 205 colon
M14 melanoma = tested on: M14 melanoma
HL-60(TB) leukemia = tested on: HL-60(TB) leukemia
CCRF-CEM leukemia = tested on: CCRF-CEM leukemia
LOX IMVI melanoma = tested on: LOX IMVI melanoma

Row | SMILES | TGI (SR leukemia) [µM] | TGI (UACC-257 melanoma) [µM] | TGI (SN12C renal) [µM] | TGI (OVCAR-3 ovarian) [µM] | TGI (UACC-62 melanoma) [µM] | TGI (COLO 205 colon) [µM] | TGI (M14 melanoma) [µM] | TGI (HL-60(TB) leukemia) [µM] | TGI (CCRF-CEM leukemia) [µM] | TGI (LOX IMVI melanoma) [µM] | GI50 (SR leukemia) [µM] | GI50 (UACC-257 melanoma) [µM] | GI50 (SN12C renal) [µM] | GI50 (OVCAR-3 ovarian) [µM] | GI50 (UACC-62 melanoma) [µM] | GI50 (COLO 205 colon) [µM] | GI50 (M14 melanoma) [µM] | GI50 (HL-60(TB) leukemia) [µM] | GI50 (CCRF-CEM leukemia) [µM] | GI50 (LOX IMVI melanoma) [µM]
1 | COc1cccc(C2CC(C)(N3CCCC3)Oc3cc4c(cc32)OCO4)c1O (configuration not stated) | 31.6 | > 100 | 84.9 | 46.1 | > 90.1 | 39.7 | > 83.8 | > 54.2 | > 83.3 | > 94.5 | – | – | – | – | – | – | – | – | – | –
2 | CS(=O)(=O)CCNCc1nc(-c2ccc3ncnc(Nc4ccc(F)c(Cl)c4)c3c2)cs1 | > 22.2 | > 25 | > 25 | > 25 | > 25 | > 25 | > 25 | > 17.8 | > 25 | > 25 | > 14 | > 25 | 15.6 | 11.1 | 17.6 | > 20.5 | 21.5 | > 12.3 | 15.4 | 14.1
3 | C=C1C(=O)O[C@H]2[C@H]1CC/C(COC(=O)c1cc3cc(F)ccc3[nH]1)=C\CC[C@@]1(C)O[C@@H]21 | 17.6 | 4.26 | 3.92 | 2.66 | 3.79 | 3.37 | 4.11 | 9.27 | 6.52 | 2.46 | 2.03 | 2.28 | 1.85 | 1.2 | 1.89 | 1.64 | 1.89 | 2.07 | 0.919 | 1.05
4 | CC1=C(C(=O)Nc2ccccc2C)C(c2ccccc2)C(C(=O)Nc2ccccc2C)=C(C)N1 | 42.5 | > 100 | > 100 | > 100 | > 100 | 74.2 | > 100 | 43.3 | 73.9 | 42.6 | – | – | – | – | – | – | – | – | – | –
5 | CCOC/N=C(/N)NC#N | > 100 | > 100 | > 100 | > 100 | > 100 | > 100 | > 100 | > 100 | > 100 | 27.1 | – | – | – | – | – | – | – | – | – | –
6 | COc1ccc2c(c1)[nH]c(=O)c1c3cc(C)c(C)cc3cn21 | 0.224 | 26.4 | 1.74 | < 0.0143 | 5.32 | 0.0248 | 1.2 | < 0.013 | – | 1.66 | < 0.0152 | 12.8 | < 0.0192 | < 0.01 | < 0.0204 | < 0.0134 | < 0.01 | < 0.01 | < 0.0149 | < 0.014
7 | CC[C@H](C)N(CCN)C(=O)c1cc2ccccc2c(-c2ccccc2Cl)n1 | 28.1 | 3.37 | 32.8 | 34 | 29.5 | 17.9 | 44.8 | 23.1 | 15.7 | 27.7 | – | – | – | – | – | – | – | – | – | –
8 | Cc1ccc(CNc2c3ccccc3nc3ccccc23)cc1 | 6.22 | 5.06 | 11.1 | 6.22 | 4.1 | 3.59 | 3.24 | 5.07 | 12.6 | 2.84 | 1.56 | 2.17 | 2.6 | 2.42 | 1.75 | 1.57 | 1.53 | 2.2 | 2.48 | 1.48
9 | COc1nc(N(C)O)nc(N(C)O)n1 | 4.35 | > 100 | > 100 | > 100 | 9.92 | > 100 | – | 9.1 | > 100 | > 100 | 0.391 | 3.52 | 2.25 | 0.794 | 2.28 | 1.24 | – | 1.68 | 0.624 | 0.895
10 | CC1=C(C)C(=O)c2c(cc3ccc4ccccc4n23)C1=O | > 100 | – | > 100 | > 100 | > 100 | > 100 | > 100 | > 100 | > 100 | > 100 | – | – | – | – | – | – | – | – | – | –
11 | COc1ccc2cc(C(=O)/C=C/c3cc(OC)c(OC)c(OC)c3)ccc2c1 | > 50 | – | 8.78 | > 50 | 12.7 | > 50 | 16.1 | 20.9 | > 50 | 11 | 1.32 | – | 1.73 | 5.86 | 5.25 | 13.7 | 6.52 | 5.34 | > 50 | 2.55
12 | Cn1c(=O)nc2n(-c3ccc(Cl)cc3)c3ccc(Cl)cc3nc-2c1=O | 58 | 14.5 | 27.6 | 8.14 | 3.09 | – | 21.8 | 18.9 | 85.6 | 13.1 | – | – | – | – | – | – | – | – | – | –
13 | Cc1c2c(nn1-c1ccc(S(=O)(=O)NC(=S)Nc3ccccc3)cc1)-c1ccccc1CC2 | > 50 | > 50 | > 50 | > 50 | > 50 | > 50 | > 50 | > 50 | – | > 50 | > 50 | > 50 | > 50 | 36.8 | > 50 | > 50 | > 50 | > 50 | – | 25.8
14 | N=C1C(c2nc(-c3ccc(Br)cc3)cs2)=C(O)CN1Cc1cccnc1 | 67.2 | > 100 | > 100 | 42 | 30.6 | 38.4 | – | 20.2 | 65.8 | 29.4 | 17.3 | 27.8 | 26.8 | 14 | 6.92 | 11.9 | – | 3.42 | 4.28 | 12
15 | Cc1cc(-c2ncc(CC(=O)Nc3ccc(-c4cnccn4)cn3)cc2C)ccn1 | > 100 | > 100 | > 100 | > 100 | > 100 | > 100 | – | > 100 | > 100 | > 100 | 18.4 | 16.6 | 91.7 | 41.2 | 22.1 | 42.8 | – | 39.3 | 35.8 | 68.7
